Test results as given in patent US20060094722A1 (Eisai Co., Ltd., priority 2002, published 2006).
Where “and” joins values, the source holds several entries; their conditions need not be identical. Identical values can stand only once. Like-named read-outs stand apart in the source and are kept apart here.

Assays:
[1] = tested on: DPPIV-deficient male Fisher rats; test: Influence of metformin on the level of GLP-2 in DPPIV-deficient rats; type: in vivo, rat; conditions: 300 mg/kg p.o.; for GLP-2 concentration at each time point (hr) after oral administration (ng/ml): listed as metformin
Experimental: Animals: DPPIV-Deficient Male Fisher Rats (Purchased from Charles River Japan, Inc.)
The test compound was suspended in a solution of 0.5% methyl cellulose at the dose indicated in Table 11, and then administered orally at a volume of 5 mL/kg. The vehicle control group was orally administered an aqueous solution of 0.5% methyl cellulose at a volume of 5 mL/kg.
An unanesthetized rat was lightly cut at the caudal vein with a razor blade and bled immediately before, and at 1, 3, and 5 hours after administration of a test compound or a solution of 0.5% methyl cellulose. 250 μL of blood was collected from the rat using a heparinized capillary and transferred into a centrifugation tube. The supernatant obtained by centrifugation (at 10000 g at 4° C. for 2 minutes) was assayed for GLP-2 level using GLP-2 ELISA kit (Yanaihara Institute Inc.).

Zucker fa/fa rats [2] = conditions: for Blood glucose level at each time point (hr) after oral glucose administration / GLP-1 concentration at each time point (hr) after oral glucose administration (% of Pre) / Insulin concentration at each time point (hr) after oral glucose administration: 300 mg/kg p.o. 0.5 hour before glucose load
Experimental: (§1) Animals: Zucker fa/fa Rats, an Animal Model for TypeII Diabetes (Purchased from Charles River Japan, Inc.)
(§2) Each test compound was dissolved in distilled water at the doses shown in the Tables indicated below, and then administered orally at a volume of 5 mL/kg. The vehicle control group was orally administered distilled water at a volume of 5 mL/kg. […] The rats were tested for glucose tolerance on the first day of the administration series. In the test, distilled water and the test compounds were given 0.5 hour before glucose load.
For the glucose tolerance test, an unanesthetized rat was lightly cut at the caudal vein with a razor blade and bled immediately before the administration of a test compound or distilled water, and immediately before, and at 0.5, 1, 2, and 3 hours after glucose load. 250 μL of blood was collected from the rat using a heparinized capillary and transferred into a centrifugation tube. The supernatant obtained by centrifugation (at 10000 g at 4° C. for 2 minutes) was assayed for active GLP-1 level using Active GLP-1 ELISA kit (Linco). At the same time, 10 μL of blood was collected and mixed with 140 μL of a 0.6 M perchloric acid solution. The mixture was centrifuged (at 3000 g at 4° C. for 10 minutes), and the resulting supernatant was assayed for glucose using Glucose Test Wako II (Wako Pure Chemical Industries, Inc.). The level of blood glucose alone was determined at the time of measurement 3 hours after glucose load.

Zucker fa/fa rats [3] = conditions: 300 mg/kg p.o. twice daily for 14 days
Experimental: as §1, §2
Food intake and body weight were determined at 4:00 p.m after the 14-day administration series. Total food intake and weight gain over 14 days were determined for each experimental group.

[4] = tested on: DPPIV-intact normal male Fisher rats; conditions: for GLP-1 concentration at each time point (hr) after oral administration (% of Pre): 300 mg/kg p.o.
Experimental: Each test compound was suspended in a solution of 0.5% methyl cellulose at the doses indicated in Table 3, and then administered orally at a volume of 5 mL/kg. The vehicle control group was orally administered a solution of 0.5% methyl cellulose at a volume of 5 mL/kg.
An unanesthetized rat was lightly cut at the caudal vein with a razor blade and bled immediately before, and at 1, 3, and 5 hours after administration of a test compound or a solution of 0.5% methyl cellulose. 250 μL of blood was collected from the rat using a heparinized capillary and transferred into a centrifugation tube. The supernatant obtained by centrifugation (at 10000 g at 4° C. for 2 minutes) was assayed for GLP-1 level using Active GLP-1 ELISA kit (Linco).

[5] = tested on: DPPIV-intact normal male Fisher rats; test: Influences of metformin and DPPIV inhibitors (Examples 82, 119, 120, 122, 229, 267), singly or in combination, on GLP-1 level in normal rats; type: in vivo, rat
Experimental: Animals: DPPIV-Intact Normal Male Fisher Rats (Purchased from CLEA Japan, Inc.)
250 μL of blood was collected from the rat using a heparinized capillary and transferred into a centrifugation tube.

BALB/c AnCrj mice = conditions: 300 mg/kg p.o. twice a day, 5-FU treatment 60 mg/kg for 3 days, mice
Experimental: Animals: BALB/c AnCrj Mice (Purchased from Charles River Japan, Inc.)
5-FU (purchased from Sigma) was suspended in a solution of 0.5% methyl cellulose, and then administered orally at a volume of 10 mL/kg/day (8 a.m. to 9 a.m.) for 3 days (60 mg/kg). […] The vehicle control group was orally administered a solution of 0.5% methyl cellulose at a volume of 10 mL/kg.
Mice were fasted for 18 hours following the afternoon administration on the third day of the administration series. On the following day, the mice were killed by cervical dislocation, and then the whole small intestine was excised and the wet weight was measured.

[6] = tested on: DPPIV-deficient male Fisher rats
Experimental: Animals: DPPIV-deficient male Fisher rats (purchased from Charles River Japan, Inc.)
Each test compound was suspended in a solution of 0.5% methyl cellulose at the doses indicated in Table 2, and then administered orally at a volume of 5 mL/kg. The vehicle control group was orally administered a solution of 0.5% methyl cellulose at a volume of 5 mL/kg.
An unanesthetized rat was lightly cut at the caudal vein with a razor blade and bled immediately before, and at 1, 3, and 5 hours after the administration of a test compound or a solution of 0.5% methyl cellulose. 250 μL of blood was collected from the rat using a heparinized capillary and transferred into a centrifugation tube. The supernatant obtained by centrifugation (at 10000 g at 4° C. for 2 minutes) was assayed for GLP-1 level using Active GLP-1 ELISA kit (Linco).

SMILES: CN(C)C(=N)N=C(N)N [Metformin, metformin]
- GLP-2 concentration at each time point (hr) after oral administration ([1]; 0 hr): 1.32 ± 0.02 ng/mL
- GLP-2 concentration at each time point (hr) after oral administration ([1]; 1 hr): 1.65 ± 0.06 ng/mL
- GLP-2 concentration at each time point (hr) after oral administration (ng/ml) ([1]; 1 hr): significantly elevated
- GLP-2 concentration at each time point (hr) after oral administration ([1]; 3 hr): 2.08 ± 0.07 ng/mL
- GLP-2 concentration at each time point (hr) after oral administration (ng/ml) ([1]; 3 hr): significantly elevated
- GLP-2 concentration at each time point (hr) after oral administration ([1]; 5 hr): 2.15 ± 0.05 ng/mL
- GLP-2 concentration at each time point (hr) after oral administration (ng/ml) ([1]; 5 hr): significantly elevated
- level of active GLP-1 during the glucose tolerance test (Zucker fa/fa rats [2]): no significant increase
- level of insulin during the glucose tolerance test (Zucker fa/fa rats [2]): no significant increase
- Blood glucose level at each time point (hr) after oral glucose administration (Zucker fa/fa rats [2]; 0 hr): 117.4 ± 5.5 mg/dL
- GLP-1 concentration at each time point (hr) after oral glucose administration (% of Pre) (Zucker fa/fa rats [2]; 0 hr): 105.6 ± 1.7 % of Pre
- Insulin concentration at each time point (hr) after oral glucose administration (Zucker fa/fa rats [2]; 0 hr): 14.0 ± 1.1 ng/mL
- Blood glucose level at each time point (hr) after oral glucose administration (Zucker fa/fa rats [2]; 0.5 hr): 160.6 ± 9.7 mg/dL
- GLP-1 concentration at each time point (hr) after oral glucose administration (% of Pre) (Zucker fa/fa rats [2]; 0.5 hr): 135.4 ± 7.6 % of Pre
- Insulin concentration at each time point (hr) after oral glucose administration (Zucker fa/fa rats [2]; 0.5 hr): 22.9 ± 2.5 ng/mL
- Blood glucose level at each time point (hr) after oral glucose administration (Zucker fa/fa rats [2]; 1 hr): 177.5 ± 10.6 mg/dL
- GLP-1 concentration at each time point (hr) after oral glucose administration (% of Pre) (Zucker fa/fa rats [2]; 1 hr): 126.0 ± 8.9 % of Pre
- Insulin concentration at each time point (hr) after oral glucose administration (Zucker fa/fa rats [2]; 1 hr): 21.2 ± 2.3 ng/mL
- Blood glucose level at each time point (hr) after oral glucose administration (Zucker fa/fa rats [2]; 2 hr): 159.8 ± 8.6 mg/dL
- GLP-1 concentration at each time point (hr) after oral glucose administration (% of Pre) (Zucker fa/fa rats [2]; 2 hr): 118.4 ± 6.5 % of Pre
- Insulin concentration at each time point (hr) after oral glucose administration (Zucker fa/fa rats [2]; 2 hr): 16.9 ± 1.6 ng/mL
- Blood glucose level at each time point (hr) after oral glucose administration (Zucker fa/fa rats [2]; 3 hr): 122.4 ± 3.7 mg/dL
- Blood glucose level at each time point (hr) after oral glucose administration (Zucker fa/fa rats [2]; −0.5 hr): 108.9 ± 5.6 mg/dL
- GLP-1 concentration at each time point (hr) after oral glucose administration (% of Pre) (Zucker fa/fa rats [2]; −0.5 hr): 100.0 ± 0.0 % of Pre
- Insulin concentration at each time point (hr) after oral glucose administration (Zucker fa/fa rats [2]; −0.5 hr): 11.9 ± 1.1 ng/mL
- glucose tolerance (Zucker fa/fa rats [2]; glucose tolerance test): improved
- Total food intake for 14 days (Zucker fa/fa rats [3]): 495.1 ± 8.9 g
- Weight gain for 14 days (Zucker fa/fa rats [3]): 64.5 ± 3.5 g
- GLP-1 concentration at each time point (hr) after oral administration (% of Pre) ([4]; 0 hr): 100 ± 0.0 % of Pre
- GLP-1 concentration at each time point (hr) after oral administration (% of Pre) ([4]; 1 hr): 117 ± 9 % of Pre
- GLP-1 concentration at each time point (hr) after oral administration (% of Pre) ([4]; 3 hr): 149 ± 24 % of Pre
- GLP-1 concentration at each time point (hr) after oral administration (% of Pre) ([4]; 5 hr): 94 ± 10 % of Pre
- level of active GLP-1 ([4]; given singly): no increase
- GLP-1 concentration 3 hours after oral administration (% of Pre) ([5]; 300 mg/kg p.o., 3 hours): 118.1 ± 7.5 % of Pre and 108.6 ± 2.2 % of Pre and 112.5 ± 2.4 % of Pre
- level of active GLP-1 ([5]; 3 hours after administration): no increase
- Wet weight of small intestine (BALB/c AnCrj mice): 0.642 ± 0.017 g
- Wet weight of small intestine (g) (BALB/c AnCrj mice; listed as metformin): no alteration
- GLP-1 concentration at each time point (hr) after oral administration (% of Pre) ([6]; 30 mg/kg p.o., 0 hr): 100 ± 0.0 % of Pre
- GLP-1 concentration at each time point (hr) after oral administration (% of Pre) ([6]; 30 mg/kg p.o., 1 hr): 99.9 ± 3.7 % of Pre
- GLP-1 concentration at each time point (hr) after oral administration (% of Pre) ([6]; 30 mg/kg p.o., 3 hr): 106.6 ± 5.0 % of Pre
- GLP-1 concentration at each time point (hr) after oral administration (% of Pre) ([6]; 30 mg/kg p.o., 5 hr): 116.3 ± 2.7 % of Pre
- GLP-1 concentration at each time point (hr) after oral administration (% of Pre) ([6]; 100 mg/kg p.o., 0 hr): 100 ± 0.0 % of Pre
- GLP-1 concentration at each time point (hr) after oral administration (% of Pre) ([6]; 100 mg/kg p.o., 1 hr): 111.6 ± 7.9 % of Pre
- GLP-1 concentration at each time point (hr) after oral administration (% of Pre) ([6]; 100 mg/kg p.o., 3 hr): 116.3 ± 8.2 % of Pre
- GLP-1 concentration at each time point (hr) after oral administration (% of Pre) ([6]; 100 mg/kg p.o., 5 hr): 150.6 ± 7.2 % of Pre
- GLP-1 concentration at each time point (hr) after oral administration (% of Pre) ([6]; 300 mg/kg p.o., 0 hr): 100 ± 0.0 % of Pre
- GLP-1 concentration at each time point (hr) after oral administration (% of Pre) ([6]; 300 mg/kg p.o., 1 hr): 140.0 ± 11.5 % of Pre
- GLP-1 concentration at each time point (hr) after oral administration (% of Pre) ([6]; 300 mg/kg p.o., 3 hr): 199.3 ± 32.4 % of Pre
- GLP-1 concentration at each time point (hr) after oral administration (% of Pre) ([6]; 300 mg/kg p.o., 5 hr): 227.1 ± 35.5 % of Pre
- GLP-1 concentration at each time point (hr) after oral administration (% of Pre) ([6]; 300 mg/kg p.o., 5 hr, listed as metformin): significantly elevated
